According to patent US12029682B2, “Spray ejector mechanisms and devices providing charge isolation and controllable droplet charge, and low dosage volume ophthalmic administration” (EYENOVIA, INC., priority 2012, dated 2024):
Values belong to the molecule of their own block, whether it stands above or below them.

Legend:
[1] = tested on: glaucomatous beagles; experiment: Pupil diameter (PD), Jameson Caliper, in glaucomatous beagles; type: in vivo, beagle dog; conditions: for PD: spray ejector device, one dog
Method: (§1) One glaucomatous beagle dog (female, aged 3 years) from the University of Florida MacKay Colony of Glaucomatous Beagles was chosen for this study. The animal was rested a minimum of one week before starting the study. Prior to the commencement of the study, the animal was assigned one eye to receive 1.5 μl of 0.005% latanoprost and the contralateral eye to remain untreated as a control. The basic measurement protocol was followed at all times and performed by the same operator. PD was measured via Jameson Caliper (mm horizontally). IOP was measured using a TonoVet instrument with clean probe (iCare). IOP and PD were measured at time 0, 1, 2, 4, 7 and 18 hours daily for two days. Immediately after the time 0 measurement, the animal received 1.5 μl of 0.005% latanoprost in its assigned eye with a spray device. The contralateral eye was left untreated. The spray device was checked for accuracy before and after every use, and required a 10% delivered dose accuracy in pretreatment. Standard measurements continued throughout each day at time 1, 2, 4, 7 and 18 hours. Possible endpoints included, but were not limited to, excessive ocular irritation, ocular damage, and other illness or injury. No statistical crossover was utilized for this study.
as §1, with “study.” for “study. The animal was rested a minimum of one week before starting the study.”, “receive 3.0” for “receive 1.5”, “0 measurements,” for “0 measurement,”, “animal was administered 3.0” for “animal received 1.5”, “eye using” for “eye with”, “spray ejector” for “spray”
All animals were rested for a minimum of one week before starting the trials. IOP and pupil diameter (PD) were measured 5 times (at 0, 1, 2, 4, and 7 hours) daily for four days (study days 1-4) to establish initial baseline levels. The basic measurement protocol was followed at all times and performed by the same operator. PD was measured via Jameson Caliper (mm horizontally). IOP was measured with a TonoVet instrument with clean probe (iCare). After three rest days, one eye was randomly assigned to receive 9 μl of 0.005% latanoprost delivered via a spray ejector device, and the contralateral eye was administered traditional latanoprost from a traditional eyedropper container (26-30 μl).
On study days 5-9, IOP and PD measurements were taken at approximately 0900 h (time 0). Immediately after time 0 measurements, each animal received a once-daily dose of 9 μl of generic 0.005% latanoprost in its assigned eye via the spray ejector device. […]

[2] = tested on: glaucomatous beagles; parameters: species or system beagle dog; conditions: dog, in vivo
Method: All animals are rested a minimum of one week before starting the trials. Intraocular pressure (IOP), pupil diameter (PD), and heart rate (HR) are measured 6 times (at 0, 0:30, 0:45, 1, 2, 7 hrs) daily for five days, for initial baseline levels (Study days 1-5). The basic measurement protocol is followed and performed by the operator. PD is measured via Jameson Caliper (mm horizontally). IOP is measured with a TonoVet instrument with clean probe (iCare). HR is monitored via palpation of the femoral vessels. After two rest days, one eye is randomly assigned to receive the drug delivered via the ejector device and the contralateral eye is given traditional latanoprost from an eye dropper container.
All animals were rested a minimum of one week before starting the trials. Intraocular pressure (IOP), pupil diameter (PD), and heart rate (HR) were measured daily at time 0, 12, 13, 14, 16, and 19 hours for five days starting at approximately 2100 h to establish initial baseline levels (study days 1-5). […] PD was measured via Jameson Caliper (mm horizontally). IOP was measured using a TonoVet instrument with clean probe (iCare). HR was monitored via palpation of the femoral vessels. […]
Following a 7 day rest period, the eye choice was reversed. […] A veterinary ophthalmologist evaluated each test subject before and after the study for evidence of ocular side effects. […]

SMILES: CC(C)OC(=O)CCC/C=C\C[C@@H]1[C@@H](CC[C@@H](O)CCc2ccccc2)[C@H](O)C[C@@H]1O [latanoprost]
PD ([1]; 1.5 μl of 0.005%, by hour 1 through hour 7): 0 mm
PD ([1]; 3.0 μl of 0.005%, by hour 1 throughout hour 7): 0 mm
time to return to normal PD ([1]; one drop of 0.005% by eyedropper): ≤ 24 h
time at which the iris reached pinpoint status ([1]; traditional treatment, one drop by eyedropper, remained for the seven hours of monitoring): 1 h
time at which the iris reached pinpoint status (maximum miosis) ([1]; two 6 μl doses via ejector device, remained for the seven hours of monitoring): 1 h

changes in HR [2]: no changes in HR
SMILES: CC(C)OC(=O)CCC/C=C\C[C@@H]1[C@@H](/C=C/[C@@H](O)COc2cccc(C(F)(F)F)c2)[C@H](O)C[C@@H]1O [travoprost]
